Experimental data from patent US8507506B2, “Theophylline derivative inhibits osteoporosis” (Kaohsiung Medical University, priority 2011, dated 2013).

Legend:
Format in all cases: cell-based
[1] = tested on: Fra-2 mRNA in RAW264.7 cells; assay: RT-PCR, RANKL-induced mRNA expression of Fra-2; conditions: for RANKL-induced mRNA expression level of Fra-2: RAW264.7 cells, 24 hours, CTL 100%, mean ± SEM
Description: The culture medium was discarded. […] [table] f) Running • A.

RAW264.7 cells = assay: BrdU assay, proliferation induced by RANKL; conditions: RAW264.7, 5 μM, 7.5 μM, 10 μM, FIG. 2
Experimental: The BrdU assay was followed the instructions of Cell Proliferation ELISA BrdU kit. 10^3 cells were plated per well in 96-well plates. […] After washing in wash buffer for three times, 100 μl/well Substrate reaction was added and incubated for 30 minutes at room temperature.

[2] = tested on: RAW264.7 cells stimulated by RANKL; assay: TRAP stain, differentiation into multinuclear osteoclast-like cells; conditions: 10 ng/ml RANKL for 5 days, FIG. 3
Experimental: 10^3 cells were plated per well in 96-well plates. […] PBS, 50 μl/well fluid was left. […] 50 μl/well fluid was left, and then Substrate 200 μl/well was added to react for 15 minutes in room temperature. After the cells were stained in red, the cells were washed by ddH2O. At last, the cells were observed and taken pictures by an optical microscopy (40× and 200×), and Autopano Pro V1.4.2, Kolor, Paris, was used to proceed the pictures taken in 40×. Then, the number of the osteoclasts with at least three nuclei was counted and compared with the control group. […] Fixative solution: Citrate solution 25 ml, Acetone 65 ml, 37% Formaldehyde 8 ml. Stored in dark in 4° C. • 2. Citrate solution: 18 mM citric acid, 9 mM sodium citrate, and 12 mM NaCl were solved in 100 ml water, pH 3.6, and then 0.001% Triton X-100 was added at last. • 3. Substrate: 2 mg AS-MX (Naphthol As-Mx-phosphate disodium) and 6 mg Fast Red Violet LB were solved in 1 M Sodium tartrate acetone (0.1 M, pH 5) and 0.1 M, 19 ml sodium acetate.

osteoclast-like cells = assay: Pit formation assay (dissolution of osteoclast-like cells); conditions: calcium phosphate coated plates, 10 ng/ml RANKL for five days, different concentrations, FIG. 5
Experimental: In order to confirm the influence of KMUP-1 to the bone dissolution of differentiated osteoclast-like cells, cells are cultured in the plates which are coated calcium phosphate of bone-like matrix in the bottom and are given 10 ng/ml RANKL for five days and different concentration of KMUP-1. According to the result, compared with the control group, in the group which is given 10 ng/ml RANKL alone for 5 days, the osteoclast-like cells have obviously dissolution activity, so the covers at the plate bottom present many holes. […] Subsequently, 100 μl medium with 1,000 cells were added into each well, and the total volume was 300 μl/well. The slides were incubated for 5 days, and the medium and the drugs were renewed every 2 days. After 5 days, the medium was removed, and the cells were washed by ddH2O 3 times. Subsequently, the cells were covered by Bleach solution for staining 5 minutes and then were washed by ddH2O for 5 times. After drying, the cells were took a photo by an optical microscopy (40× and 200×), and Autopano Pro V1.4.2, Kolor, Paris, was used to proceed the pictures taken in 40×.

[3] = tested on: IκBα in cytoplasm of RAW264.7 cells; assay: Western blot, IκBα phosphorylation and hydrolysis induced by RANKL; conditions: KMUP-1 in advance 24 hours, RANKL 30 minutes, FIG. 8(A)
Experimental: IκBα which originally binds with NF-κB to inhibit its activity in cytoplasm is stimulated by RANKL to be phosphorylized and be hydrolyzed after separating from NF-κB. Then, the free NF-κB transfers into a cell nucleus to play a role as a transcription factor. According to the experimental result, compared with the control group, in the group induced by RANKL for 30 minutes, the IκBα in the cytoplasm is obviously phosphorylized and hydrolyzed. […] According to the result, KMUP-1 can inhibit NF-κB activation induced by RANKL. Nuclear proteins were extracted according to the instructions of NE-PER kit. 2.5×10^6 cells were plated per well in 24-well plates. […] Subsequently, the cells were added by 5.5 μ[…] and shaken for 5 seconds and then put on ice for 1 minute. After that, the cells were shaken again for 5 seconds and centrifuged (10,000 rpm, 4° C., 5 minutes). Cytoplasm and Nuclei could be separated by this process, and the supernatant was cytoplasmic proteins, and the pallet was nuclei. The supernatant was stored in an eppendorf in -80° C. b) Extraction of Nuclear Proteins The nuclear pallet was added by 500 μl PBS and centrifuged (10,000 rpm, 4° C., 5 minutes), and the supernatant was discarded. The pallet could be washed by this process and prevented contamination. […]

[4] = tested on: ERK phosphorylation in RAW264.7 cells; assay: Western blot, phosphorylation of ERK induced by RANKL; conditions: 7.5 μM and 10 μM, RANKL 15 minutes, FIG. 9
Experimental: MAP kinases including ERK, JNK and p38 are stimulated by RANKL to be phosphorylized and further influence the down-stream key transcription factors which induce the differentiation of osteoclast-like cells such as c-Fos, NFATc1, etc. Before estimating the drug effect, 10 ng/ml RANKL are used to induce the phosphorylation of ERK, JNK and p38 at different time points. […] It is shown that KMUP-1 can reduce the activation of MAP kinases induced by RANKL. […] The proteins were collected by scraping and were centrifuged (13,000 rpm, 4° C., 30 minutes). The supernatant was stored in an eppendorf in −80° C. • c) Concentrations of the proteins were examined by Bio-Red DC Protein Assay. After knowing the concentrations, the proteins were diluted to specific concentrations by adding ddH2O. One forth volume of the diluted proteins of sample buffer was added into the diluted proteins and was put in boiled water for 5 min and then was chilled on ice for 5 minutes. After short time centrifugation, the diluted proteins could be injected into wells of a gel. The gel was run at 100 V for 10 minutes until the proteins were driven to the intersection between a loading gel and a running gel. Then, the voltage was swopped to 200 V for 40 minutes. • d) A PVDF membrane was immersed in Methanol for 2 minutes. After two washes in ddH2O, the membrane was immersed in transfer buffer for 15 minutes. […]

Compound: Cn1c(=O)c2c(ncn2CCN2CCN(c3ccccc3Cl)CC2)n(C)c1=O [KMUP-1, 7-[2-[4-(2-Chlorophenyl)piperazin-1-yl]ethyl] theophylline]
- effect on mRNA expression of Fra-2 induced by RANKL (in words) ([1]; 10 ng/ml RANKL, summary of Table 1): not obviously inhibits
- RANKL-induced mRNA expression level of Fra-2 ([1]; RANKL 10 ng/ml + KMUP-1 1 μM): 428.3 ± 38.5%
- RANKL-induced mRNA expression level of Fra-2 ([1]; RANKL 10 ng/ml + KMUP-1 2.5 μM): 490.5 ± 42.3%
- RANKL-induced mRNA expression level of Fra-2 ([1]; RANKL 10 ng/ml + KMUP-1 5 μM): 488.2 ± 57.6% ^
- RANKL-induced mRNA expression level of Fra-2 ([1]; RANKL 10 ng/ml + KMUP-1 7.5 μM): 474.5 ± 52.1% ^
- RANKL-induced mRNA expression level of Fra-2 ([1]; RANKL 10 ng/ml + KMUP-1 10 μM): 496.6 ± 44.1% ^
- cell proliferation induced by RANKL (BrdU assay) (RAW264.7 cells): can inhibit the cell proliferation induced by RANKL
- differentiation into multinuclear osteoclast-like cells (TRAP staining) [2]: obviously express inhibition phenomenon related to dose
- dissolution of osteoclast-like cells (dissolution area) (osteoclast-like cells): can inhibit the dissolution of osetocalst-like cells
- phosphorylation and hydrolysis of IκBα in cytoplasm induced by RANKL [3]: can inhibit the effect of RANKL
- phosphorylation of ERK induced by RANKL [4]: can efficiently inhibit the phosphorylation of ERK, JNK and p38 induced by RANKL
